The target of assay [1] is PDE 7 (phosphodiesterase VII) (Homo sapiens (Human), UniProt Q13946). Put plainly: PDE 7 inhibiting effect (3H-cAMP hydrolysis, PDE 7 active fraction from MOLT-4 cells). It counts as biochemical. Conditions: read-out: PDE7 IC50. As for the experimental part:
Methods for Evaluating the PDE 7 Inhibiting Effect
The PDE 7 (phosphodiesterase VII) inhibiting effect of the compounds of the present invention was performed by the following method, which was modified assay method described in Biochemical. Pharmacol. 48(6), 1219-1223 (1994). • (1) The active fraction of PDE 7 (phosphodiesterase VII) was obtained. That is, MOLT-4 (obtainable from ATCC as ATCC No. CRL-1582), which was cell line of human acute lymphoblastic lymphoma T cells, was incubated in RPMI1640 culture medium containing 10% fetal bovine serum to obtain 5×10^8 MOLT-4 cells. The cells were collected by centrifugation and suspended with 10 mL of buffer solution A [25 mM of tris-HCl, 5 mM of 2-mercaptoethanol, 2 mM of benzamidine, 2 mM of EDTA, 0.1 mM of 4-(2-aminoethyl)benzenesulfonyl hydrochloride; pH 7.5], then homogenized by Polytron® homogenizer. The homogenate were centrifuged under 25,000×G for 10 minutes at 4° C. The supernatant was separated and thus obtained supernatant was further centrifuged under 100,000×G for 60 minutes at 4° C., and then filtrated with 0.2 μm filter to obtain the soluble fraction. • (2) The obtained soluble fraction was filled in equilibrium HiTrap Q column (5 mL×2) with buffer solution A, and phosphodiesterase fractions were eluted by 300 mL of buffer solution A with linear gradient from 0 to 0.8 M NaCl concentration. 5 mL each of 60 eluents were collected, and each eluents were examined for cyclic AMP metabolic activities of phosphodiesterase. […] After the reaction, suspension of Sephadex®-QAE in 10 mM of HEPES-Na (pH 7.0) was added to the reaction mixture, and the mixture was left at rest for 5 minutes.

For assay [2], the target named is PDE 4 (phosphodiesterase IV). Put plainly: PDE 4 inhibiting effect (3H-cAMP hydrolysis, PDE 4 active fraction from Balb/c mouse liver). It counts as biochemical. Particulars: PDE 4 fraction from Balb/c mice liver, 0.064 μM cAMP, 2 hours at 25° C.; read-out: PDE4 IC50. As for the experimental part: Methods for Evaluating the PDE 4 Inhibiting Effect
The PDE 4 (phosphodiesterase IV) inhibiting effect of the compounds of the present invention was performed by the following method, which was modified assay method described in Biochemical. […] That is, the livers obtained from three Balb/c mice (male, 12 weeks: obtainable from CLEA Japan, Inc.) were suspended with 30 mL of buffer solution B [20 mM of bis-tris, 5 mM of 2-mercaptoethanol, 2 mM of benzamidine, 2 mM of EDTA, 0.1 mM of 4-(2-aminoethyl)benzenesulfonyl hydrochloride, 50 mM of sodium acetate; pH 6.5], then homogenized by Polytron® homogenizer. The homogenate were centrifuged under 25,000×G for 10 minutes at 4° C. The supernatant was separated and thus obtained supernatant was further centrifuged under 100,000×G for 60 minutes at 4° C., and then filtrated with 0.2 μm filter to obtain the soluble fraction. • (2) The obtained soluble fraction was filled in equilibrium DEAE sepharose column (1×10 cm) with buffer solution B, and phosphodiesterase fractions were eluted by 120 mL of buffer solution B with linear gradient from 0.05 to 1M sodium acetate concentration. 5 mL each of 24 eluents were collected, and each eluents were examined for cyclic AMP metabolic activities of phosphodiesterase. […] After the reaction, suspension of Sephadex®-QAE in 10 mM of HEPES-Na (pH 7.0) was added to the reaction mixture, and the mixture was left at rest for 5 minutes.

[3] abbreviates: PDE 7 fraction from MOLT-4 cells, 0.064 μM cAMP, 10 μM rolipram, 2 hours at 25° C.

The record followed here is patent US8901315B2, “Thienopyrazole derivative having PDE7 inhibitory activity” (Daiichi Sankyo Company, Limited, priority 2004, dated 2014).

Each structure is given as a SMILES string. Where a name gives a salt, the structure may show the parent alone. Read-outs that look alike come from different tables or passages of the source. Bounds are passed on as bounds.

PDE 7 (phosphodiesterase VII), sequence (Q13946 whole entry): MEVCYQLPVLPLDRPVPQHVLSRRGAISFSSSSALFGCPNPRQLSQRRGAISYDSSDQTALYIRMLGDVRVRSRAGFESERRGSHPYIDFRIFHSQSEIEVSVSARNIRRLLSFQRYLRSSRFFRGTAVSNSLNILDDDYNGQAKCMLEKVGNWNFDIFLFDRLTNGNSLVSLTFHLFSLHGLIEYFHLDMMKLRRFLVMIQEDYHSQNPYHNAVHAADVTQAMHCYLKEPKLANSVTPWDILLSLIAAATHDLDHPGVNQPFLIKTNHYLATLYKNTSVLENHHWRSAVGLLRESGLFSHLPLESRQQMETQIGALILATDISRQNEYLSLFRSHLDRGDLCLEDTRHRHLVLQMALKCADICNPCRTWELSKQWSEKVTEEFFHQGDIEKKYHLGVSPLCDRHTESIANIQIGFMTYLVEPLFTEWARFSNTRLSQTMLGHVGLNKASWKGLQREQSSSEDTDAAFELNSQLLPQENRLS

Consider `COC1CCN([C@H]2CC[C@H](NC(=O)c3cc4c(C)nn(C5CCCCC5)c4s3)CC2)CC1` [Example 168, 1-Cyclohexyl-N-[trans-4-(4-methoxyl-1-piperidinyl)cyclohexyl]-3-methyl-1H-thieno[2,3-c]pyrazole-5-carboxamide], for which the figures for the half-inhibitory concentration (IC50) in assay [1] (setting [3]) and in assay [2] were 22 nM and 1500 nM, respectively.
On to `Cc1nn(C2CCCCC2)c2sc(C(=O)Nc3ccc(C(=O)N[C@H]4CC[C@H](O)CC4)nc3)cc12` [Example 382, 1-Cyclohexyl-N-(6-{[(trans-4-hydroxycyclohexyl)amino]carbonyl}-3-pyridinyl)-3-methyl-1H-thieno[2,3-c]pyrazole-5-carboxamide], for which the IC50 – broadly, the concentration at which inhibition is half-maximal – is 25 nM in assay [1] (setting [3]) and 620 nM in assay [2].
As for `Cc1nn(C2CCCCC2)c2sc(C(=O)Nc3ccc(N4CCCN(C)CC4)c(F)c3)cc12` [Example 191, 1-Cyclohexyl-N-[3-fluoro-4-(4-methyl-1,4-diazepam-1-yl)phenyl]-3-methyl-1H-thieno[2,3-c]pyrazole-5-carboxamide hemifumarate], the IC50 in assay [1] worked out at 8.9 nM; in assay [2], 980 nM.
On to `Cc1nn(C2CCCCC2)c2sc(C(=O)Nc3ccc(C(=O)NC(C)(C)C)cc3)cc12` [Example 51, N-{4-[(tert-Butylamino)carbonyl]phenyl}-1-cyclohexyl-3-methyl-1H-thieno[2,3-c]pyrazole-5-carboxamide], for which the figures for the IC50 in assay [1] (setting [3]) and in assay [2] were 75 nM and 9500 nM, respectively.
Consider `Cc1nn(C2CCCCC2)c2sc(C(=O)Nc3ccc(N(C)CCO)c(F)c3)cc12` [Example 125, 1-Cyclohexyl-N-{3-fluoro-4-[(2-hydroxyethyl)(methyl)amino]phenyl}-3-methyl-1H-thieno[2,3-c]pyrazole-5-carboxamide HCl salt], for which the values for the IC50 in assay [1] (setting [3]) and in assay [2] were 75 nM and 4000 nM, respectively.
The corresponding values for `Cc1nn(C2CCOCC2)c2sc(C(=O)N[C@H]3CC[C@H](N4CCC(CO)CC4)CC3)cc12` [Example 423] are 72 nM and 8100 nM.
The corresponding values for `Cc1nn(C2CCCCC2)c2sc(C(=O)N[C@H]3CC[C@H](N4C[C@@H](C)O[C@@H](C)C4)CC3)cc12` [Example 177, 1-Cyclohexyl-N-{trans-4-[(2R,6S)-2,6-dimethylmorpholinyl]-cyclohexyl}-3-methyl-1H-thieno[2,3-c]pyrazole-5-carboxamide] are 13 nM and 1600 nM.
In the case of `Cc1nn(C2CCCCC2)c2sc(C(=O)N[C@H]3CC[C@H](C#N)CC3)cc12` [Example 209, N-(4-Cyanocyclohexyl)-1-cyclohexyl-3-methyl-1H-thieno[2,3-c]-pyrazole-5-carboxamide], the IC50 was 77 nM in assay [1] (setting [3]) and 7400 nM in assay [2].
For `Cc1nn(C2CCCCC2)c2sc(C(=O)N[C@H]3CC[C@H](N4CCCNCC4)CC3)cc12` [Example 170, 1-Cyclohexyl-N-[trans-4-(1,4-diazepam-1-yl)cyclohexyl]-3-methyl-1H-thieno[2,3-c]pyrazole-5-carboxamide], the values for the IC50 in assay [1] (setting [3]) and in assay [2] were 22 nM and 1300 nM, respectively.
In the case of `Cc1nn(C2CCCCC2)c2sc(C(=O)Nc3ccc(C(=O)NCCO)cc3)cc12` [Example 46, 1-Cyclohexyl-N-(4-{[(2-hydroxyethyl)amino]carbonyl}phenyl)-3-methyl-1H-thieno[2,3-c]pyrazole-5-carboxamide], the concentration for half-maximal inhibition (IC50) in assay [1] (setting [3]) amounted to 30 nM; in assay [2], 2000 nM.
The corresponding values for `Cc1nn(C2CCOCC2)c2sc(C(=O)N[C@H]3CC[C@H](C(=O)N(C)C)CC3)cc12` [Example 349, N-{trans-4-[(Dimethylamino)carbonyl]cyclohexyl}-3-methyl-1-tetrahydro-2H-pyran-4-yl-1H-thieno[2,3-c]pyrazole-5-carboxamide] are 78 nM and 2800 nM.
The corresponding values for `Cc1nn(C2CCCCC2)c2sc(C(=O)Nc3ccc(C(=O)N4CCN(C)CC4)nc3)cc12` [Example 380, 1-Cyclohexyl-3-methyl N-{6-[(4-methyl-1-piperazinyl)carbonyl]-3-pyridinyl}-1H-thieno[2,3-c]pyrazole-5-carboxamide] are 56 nM and 1500 nM.
The corresponding values for `Cc1nn(C2CCCCC2)c2sc(C(=O)Nc3ccc(C(=O)N4CCCN(C)CC4)nc3)cc12` [Example 383] are 74 nM and 2400 nM.
As for `Cc1nn(C2CCOCC2)c2sc(C(=O)Nc3ccc(N4C(=O)CN(C)C4=O)cc3)cc12` [Example 260, 3-Methyl N-[4-(3-methyl-2,5-dioxo-1-imidazolidinyl)phenyl]-1-tetrahydro-2H-pyran-4-yl-1H-thieno[2,3-c]pyrazole-5-carboxamide], the values for the IC50 in assay [1] (setting [3]) and in assay [2] were 37 nM and 4500 nM, respectively.
The corresponding values for `CC(=O)Nc1ccc(NC(=O)c2cc3c(C)nn(C4CCCCCC4)c3s2)cc1` [Example 94, N-[4-(Acetylamino)phenyl]-1-cycloheptyl-3-methyl-1H-thieno[2,3-c]pyrazole-5-carboxamide] are 58 nM and over 30000 nM.
The matching figures for `CNC(=O)c1ccc(NC(=O)c2cc3c(C)nn(C4CCCCC4)c3s2)cn1` [Example 104, 1-Cyclohexyl-3-methyl-N-{6-[(methylamino)carbonyl]-3-pyridinyl}-1H-thieno[2,3-c]pyrazole-5-carboxamide]: 58 nM and 1500 nM.
The corresponding values for `Cc1nn(C2CCCCC2)c2sc(C(=O)Nc3ccc(C(=O)N(C)C)cc3)cc12` [Example 39, 1-Cyclohexyl-N-{4-[(dimethylamino)carbonyl]phenyl}-3-methyl-1H-thieno[2,3-c]pyrazole-5-carboxamide] are 14 nM and 3500 nM.
Consider `Cc1nn(C2CCCCC2)c2sc(C(=O)Nc3ccc(C(=O)NCCN(C)C)nc3)cc12` [Example 381], for which the results for the IC50 in assay [1] (setting [3]) and in assay [2] were 22 nM and 670 nM, respectively.
The corresponding values for `Cc1nn(C2CCCCC2)c2sc(C(=O)N[C@H]3CC[C@H](N4C(=O)CCC4=O)CC3)cc12` [Example 273, 1-Cyclohexyl-N-[trans-4-(2,5-dioxo-1-pyrrolidinyl)cyclohexyl]-3-methyl-1H-thieno[2,3-c]pyrazole-5-carboxamide] are 14 nM and 1600 nM.
On to `Cc1nn(C2CCOCC2)c2sc(C(=O)Nc3ccc(N4CCN(C)CC4=O)cc3)cc12` [Example 440, 3-Methyl-N-[4-(4-methyl-2-oxo-piperazinyl)phenyl]-1-tetrahydro-2H-pyran-4-yl-1H-thieno[2,3-c]pyrazole-5-carboxamide], for which the IC50 in assay [1] (setting [3]) was found to be 97 nM; in assay [2], 28000 nM.
The matching figures for `Cc1nn(C2CCCCCC2)c2sc(C(=O)Nc3ccc(N4CCN(C)CC4)cc3)cc12` [Example 112]: 8 nM and 1200 nM.
With `Cc1nn(C2CCCCC2)c2sc(C(=O)N[C@H]3CC[C@H](C(=O)O)C3)cc12` [Example 227, (1S,3S)-3-{[(1-Cyclohexyl-3-methyl-1H-thieno[2,3-c]pyrazol-5-yl)-carbonyl]amino}cyclopentanecarboxylic acid], the figures for the IC50 in assay [1] (setting [3]) and in assay [2] were 56 nM and 10000 nM, respectively.
The matching figures for `Cc1nn(C2CCCCC2)c2sc(C(=O)NCCN3CCN(C)C3=O)cc12` [Example 302, 1-Cyclohexyl-3-methyl-N-[2-(3-methyl-2-oxo-imidazolidinyl)ethyl]-1H-thieno[2,3-c]pyrazole-5-carboxamide]: 60 nM and 6100 nM.
With `COCCNC(=O)c1ccc(NC(=O)c2cc3c(C)nn(C4CCCCC4)c3s2)cc1` [Example 37, 1-Cyclohexyl-N-(4-{[(2-methoxyethyl)amino]carbonyl}phenyl)-3-methyl-1H-thieno[2,3-c]pyrazole-5-carboxamide], the IC50 in assay [1] (setting [3]) was determined as 28 nM; in assay [2] it was 2000 nM.
The matching figures for `Cc1nn(C2CCCCC2)c2sc(C(=O)Nc3ccc4c(c3)CCN4C(=O)C(C)C)cc12` [Example 23]: 83 nM and 4800 nM.
